Laboratory results taken from publication PMC6100082, “Pyridine-Ureas as Potential Anticancer Agents: Synthesis and In Vitro Biological Evaluation” (Molecules : A Journal of Synthetic Chemistry and Natural …, 2018).
Where two headings read alike, the source gives them in different places.

Columns and labels:
[1] = system: breast cancer MCF-7 cell line; test: In vitro anti-proliferative activity, MTT assay; type: cell-based, human; settings: MCF-7, MTT
Protocol: The in vitro anti-proliferative activity of the newly prepared pyridine-ureas 8a–n was examined against breast cancer MCF-7 cell line. The assay was carried out, as triplicates, utilizing the 3-(4,5-dimethylthiazol-2-yl)-2,5-diphenyltetrazolium bromide (MTT) colorimetric assay as described by T. Mosmann. Doxorubicin and Sorafenib were included in this assay as a reference drug.
MCF-7 (human breast cancer cell line) and WI-38 (human lung fibroblast cell line), were obtained from American Type Culture Collection (Manassas, VA, USA). The cells were propagated in DMEM and supplemented with 10% heat-inactivated FBS (Hyclone), 10 μg/mL of insulin (Manufacturer, Sigma, St. Louis, MO, USA), and 1% penicillin-streptomycin. MTT assay was utilized to examine the in vitro anti-proliferative activity of the newly prepared ureas following the reported procedures. […] The data presented are the mean of at least three separate experiments.

[2] = Homo sapiens, MCF7, 48 h, 48 h of incubation, read-out: IC50 48 h
[3] = Homo sapiens, MCF7, 72 h, 72 h of incubation, read-out: IC50 72 h
[4] = 48 h of incubation, read-out: IC50 48 h

Structure (SMILES)	IC50 [1, 2]	IC50 [1, 3]	melting point	IC50 [1, 4]
COc1ccc(-c2ccc(NC(=O)Nc3cccc(Cl)c3)c(C)n2)cc1 [Compound 8c, 1-(3-Chlorophenyl)-3-(6-(4-methoxyphenyl)-2-methylpyridin-3-yl) Urea]	6.4 ± 0.41 µM	3.52 ± 0.11 µM	212 to 214 °C	
COc1ccc(-c2ccc(NC(=O)Nc3cccc(OC)c3)c(C)n2)cc1 [Compound 8f, 1-(3-Methoxyphenyl)-3-(6-(4-methoxyphenyl)-2-methylpyridin-3-yl) Urea]	> 50 µM	> 50 µM	227 to 230 °C	> 50 µM
COc1ccc(-c2ccc(NC(=O)Nc3ccccc3)c(C)n2)cc1OC [Compound 8h, 1-(6-(3,4-Dimethoxyphenyl)-2-methylpyridin-3-yl)-3-phenylurea]	> 50 µM	> 50 µM	238 to 239 °C	> 50 µM
COc1ccc(-c2ccc(NC(=O)Nc3ccc(Cl)cc3)c(C)n2)cc1OC [Compound 8k, 1-(4-Chlorophenyl)-3-(6-(3,4-dimethoxyphenyl)-2-methylpyridin-3-yl) Urea]	5.63 ± 0.36 µM	3.45 ± 0.3 µM	266 to 267 °C	

The next compounds have a lower IC50 [1, 2] than those just listed; values first:

IC50 [1, 2]	IC50 [1, 3]	melting point	IC50 [1, 4]	Structure (SMILES)
4.5 ± 0.3 µM	1.71 ± 0.15 µM			CNC(=O)c1cc(Oc2ccc(NC(=O)Nc3ccc(Cl)c(C(F)(F)F)c3)cc2)ccn1 [Sorafenib, reference compound]
4.12 ± 0.27 µM	27.2 ± 1.98 µM	241 to 242 °C		COc1ccc(NC(=O)Nc2ccc(-c3ccc(OC)cc3)nc2C)cc1 [Compound 8g, 1-(4-Methoxyphenyl)-3-(6-(4-methoxyphenyl)-2-methylpyridin-3-yl) Urea]
3.03 ± 0.22 µM	2.83 ± 0.25 µM	205 to 207 °C		COc1ccc(-c2ccc(NC(=O)Nc3ccccc3)c(C)n2)cc1 [Compound 8a, 1-(6-(4-Methoxyphenyl)-2-methylpyridin-3-yl)-3-phenylurea]
1.93 ± 0.15 µM	1.07 ± 0.07 µM			COc1cccc2c1C(=O)c1c(O)c3c(c(O)c1C2=O)C[C@@](O)(C(=O)CO)C[C@@H]3O[C@H]1C[C@H](N)[C@H](O)[C@H](C)O1 [Dox., Doxorubicin, reference compound]
